Measured values published in patent US20040198815A1, “Antimicrobial and anticancer properties of methyl-beta-orcinolcarboxylate from lichen (Everniastrum cirrhatum)” (priority 2003, published 2004).
≈ marks a conversion by molar mass, not a printed value.

Experiments:
[1] = tested on: Saccharomyces cerevisiae erg 6 (amphotericin and nystatin resistant); conditions: 80 μg/disc
Procedure: (§1) The drug resistance property of the mutants was studied by standardized disc diffusion assay (Bauer at al 1966, American Journal of Clinical Pathology 45: 493-496) with slight modifications. The discs were prepared (5 mm diameter made of Whatman #3 filter paper) by impregnating 8 μl of test compound and placing them on pre-inoculated agar surface.
(§2) A disc containing only the solvent was used as the control. A zone of growth inhibition surrounding the disc is indicative of the […] nature of the strains to antibiotics.
(§3) The pure compound isolated was then tested against polyene and azole resistant strains of Candida albicans. […] In another experiment well-defined amphotericin and nystatin resistant strains of Saccharomyces cerevisiae were used in the assay. These strains designated as erg 2 and erg 6 carry mutations in the ergosterol biosynthetic pathway and therefore are unable to synthesize ergosterol which are the binding site of polyene drugs. Therefore absence of erostreol results in polyene resistance.

[2] = tested on: Candida albicans mutant strain NYS 26R; test: microbe, parasite or virus in culture; format: cell-based
Procedure: (§4) C. albicans was grown to log phase in Sabouraud's dextrose broth (5 ml) for 48 hrs at 37° C. in a shaker at 250 rpm. The cells were pelleted by centrifugation at 5000 rpm at 4° C. and the pellet was dissolved in 5 ml phosphate buffered saline PBS (6.8 pH). The culture was divided in to five groups of 1 ml each in eppendrof tubes.
(§5) Ethyl methane sulfonate (EMS) was added to each of the culture tube @ 0.1% (v/v) and allowed to grow for 40 min. Then the mutagen was completely washed off thrice by repeatedly pelleting the cells and re-dissolving in PBS. The mutagenized stocks was then diluted in Sabouraud's dextrose broth two folds and allowed to grow for 6 hrs at 37° C. in a shaker at 250 rpm. Titre of the cells before treatment with EMS and immediately after treatment with EMS was calculated to obtain the killing percentage in each of the five tubes. The mutagenized and fixed cultures were then plated in Sabouraud's dextrose agar containing different concentration of amphotericin, nystatin and clotrimazole.
(§6) The colonies found growing after 5th day from each of the five mutagenized stocks were then purified thrice separately by streaking in the same medium containing the antibiotics.

[3] = tested on: Candida albicans mutant strain Clo 28R; test: microbe, parasite or virus in culture; format: cell-based
Procedure: as §4, §5, §6

[4] = tested on: Candida albicans mutant strain NYS 4R; test: microbe, parasite or virus in culture; format: cell-based
Procedure: as §4, §5, §6

[5] = tested on: Candida albicans mutant strain Clo 31R; test: microbe, parasite or virus in culture; format: cell-based
Procedure: as §4, §5, §6

[6] = tested on: Saccharomyces Cerevisiae ABC 287 (WT); test: disc diffusion assay, wild type Saccharomyces cerevisiae; format: cell-based; conditions: 80 μg/disc; for zone of inhibition at 80 µg/disc: read-out: Net zone of growth inhibition
Procedure: as §1, §2, §3

[7] = tested on: Candida albicans MTCC 1637 (Wild Type); test: disc diffusion assay, wild type Candida albicans; format: cell-based; conditions: for zone of inhibition at 80 µg/disc: MTCC1637, read-out: Net zone of growth inhibition
Procedure: as §1, §2

[8] = tested on: Candida albicans mutant strain Amph 100R; test: disc diffusion assay, mutant Amph 100R; format: cell-based; conditions: for zone of inhibition at 80 µg/disc: Candida albicans, read-out: Net zone of growth inhibition
Procedure: as §4, §5, §6

[9] = tested on: Saccharomyces cerevisiae erg 2 (amphotericin and nystatin resistant); test: disc diffusion assay, S. cerevisiae erg 2; conditions: 80 μg/disc
Procedure: as §1, §2, §3

[10] = tested on: Candida albicans mutant strain Amph A8R; test: microbe, parasite or virus in culture; format: cell-based
Procedure: as §4, §5, §6

[11] = tested on: Candida albicans mutant strain Amph C6R; test: microbe, parasite or virus in culture; format: cell-based
Procedure: as §4, §5, §6

[12] = tested on: Candida albicans mutant strain Amph C7R; test: microbe, parasite or virus in culture; format: cell-based
Procedure: as §4, §5, §6

[13] = tested on: Candida albicans mutant strain Amph D1R; test: microbe, parasite or virus in culture; format: cell-based
Procedure: as §4, §5, §6

[14] = tested on: liver (WRL-68) cancer cell line; test: MTT cytotoxicity testing in vitro, WRL-68; format: cell-based; conditions: Homo sapiens, WRL68, 6 h exposure then 48 h
Procedure: (§7) Cytotoxicity testing in vitro was done by the method of Woerdenbag et al.,1993; J.Nat.Prod. 56 (6): 849-856). 2×10^3 cells/well were incubated in the 5% CO2 incubator for 24 h to enable them to adhere properly to the 96 well polysterene microplate (Grenier, Germany). Test compounds dissolved in 100% DMSO (Merck, Germany) in at least five doses were added and left for 6 h after which the compound plus media was replaced with fresh media and the cells were incubated for another 48 h in the CO2 incubator at 37° C. […] Sigma M 2128] was added, and plates were incubated at 37° C. for 4 h. 100 μl dimethyl sulfoxide (DMSO, Merck, Germany) were added to all wells and mixed thoroughly to dissolve the dark blue crystals. After a few minutes at mom temperature to ensure that all is crystals were dissolved, the plates were read on a SpectraMax 190 Mcroplate Elisa reader (Molecular Devices Inc., USA), at 570 nm. Plates were normally read within 1 h of adding the DMSO.

[15] = tested on: colon (Caco-2) cancer cell line; test: MTT cytotoxicity testing in vitro, Caco-2; format: cell-based; conditions: Homo sapiens, Caco2, 6 h exposure then 48 h
Procedure: Cytotoxicity testing in vitro was done by the method of Woerdenbag et al.,1993; J.Nat.Prod. […] 2×10^3 cells/well were incubated in the 5% CO2 incubator for 24 h to enable them to adhere properly to the 96 well polysterene microplate (Grenier, Germany). […] Then, 10 μl MTT [3-(4,5-dimethylthiazol-2-yl)-2,5-diphenyltetrazolium bromide; Sigma M 2128] was added, and plates were incubated at 37° C. for 4 h. 100 μl dimethyl sulfoxide (DMSO, Merck, Germany) were added to all wells and mixed thoroughly to dissolve the dark blue crystals. […] Plates were normally read within 1 h of adding the DMSO.

[16] = tested on: polyene and azole resistant strains of Candida albicans; format: cell-based
Procedure: Ethanol extract was prepared and tested against Candida albicans MTCC 1637 (equivalent to ATCC 18804) the fungi that cause different forms of candidiasis in humans and drug resistant mutants of the fungi.

[17] = tested on: polyene drug resistant Saccharomyces cerevisiae; test: activity against polyene resistant S. cerevisiae (as a group); format: cell-based; conditions: erg 2 and erg 6 strains
Excerpt: Therefore absence of erostreol results in polyene resistance.

[18] = tested on: ovarian (PA-1) cancer cell line; test: MTT cytotoxicity testing in vitro, PA-1; format: cell-based; conditions: Homo sapiens, 6 h exposure then 48 h
Procedure: as §7

[19] = in-vitro ergosterol binding assay
Excerpt: Therefore, the ability of lichen compounds to bind to ergosterol was also investigated using in-vitro ergosterol binding assay (Antonio & Molinski 1993; J.Natl.Prod.56:54-61).

[20] = tested on: oral (KB 403) cancer cell line; test: MTT cytotoxicity testing in vitro, KB 403; format: cell-based; conditions: Homo sapiens, KB403, 6 h exposure then 48 h
Procedure: as §7

[21] = tested on: (MCF-7) cancer cell line; test: MTT cytotoxicity testing in vitro, MCF-7; format: cell-based; conditions: Homo sapiens, MCF7, 6 h exposure then 48 h
Procedure: as §7

[22] = tested on: ovarian (MCF-7) cancer cell line; test: MTT cytotoxicity testing in vitro, MCF-7; format: cell-based; conditions: Homo sapiens, MCF7, 6 h exposure then 48 h
Procedure: as §7

[23] = tested on: Saccharomyces cerevisiae; conditions: Caccamese et al (1985); cited from earlier work
[24] = Candida albicans, read-out: Net zone of growth inhibition
[25] = Candida albicans MTCC (Wild Type), 80 μg/disc

In the case of `C[C@@H]1[C@H](O)[C@@H](C)/C=C/C=C/C=C/C=C/C=C/C=C/C=C/[C@H](O[C@@H]2O[C@H](C)[C@@H](O)[C@H](N)[C@@H]2O)C[C@@H]2O[C@](O)(C[C@@H](O)C[C@@H](O)[C@H](O)CC[C@@H](O)C[C@@H](O)CC(=O)O[C@H]1C)C[C@H](O)[C@H]2C(=O)O` [Amphotericin], the “Net zone of growth inhibition” value [1] was 5 mm, the zone of inhibition at 80 µg/disc [2, 24] was 4 mm and the zone of inhibition at 80 µg/disc [3, 24] was 12 mm. For the same compound, the zone of inhibition at 80 µg/disc [4, 24] was 2 mm, the zone of inhibition at 80 µg/disc [5, 24] was 6 mm and the zone of inhibition at 80 µg/disc [6] was 8 mm. For the same compound, the zone of inhibition at 80 µg/disc [7, 25] was 9 mm, the zone of inhibition at 80 µg/disc [8] was 2 mm and the “Net zone of growth inhibition” value [9] was 6 mm.

With `Clc1ccccc1C(c1ccccc1)(c1ccccc1)n1ccnc1` [Clotrimazole, reference compound] the zone of inhibition at 80 µg/disc [10, 24] was 22 mm, the zone of inhibition at 80 µg/disc [2, 24] was 19 mm and the zone of inhibition at 80 µg/disc [11, 24] was 10 mm. For the same compound, the zone of inhibition at 80 µg/disc [12, 24] was 12 mm, the zone of inhibition at 80 µg/disc [13, 24] was 27 mm and the zone of inhibition at 80 µg/disc [3, 24] was 14 mm. It also gave a zone of inhibition at 80 µg/disc [4, 24] of 20 mm, a zone of inhibition at 80 µg/disc [5, 24] of 11 mm and a zone of inhibition at 80 µg/disc [7, 25] of 17 mm. The zone of inhibition at 80 µg/disc [8] was 25 mm.

Work on `COC(=O)c1c(C)cc(O)c(C)c1O` [Methyl-β-orcinolcarboxylate, methyl-β-orcinolcarboxylate] yielded an IC50 [14] of 1 µg/mL (≈ 5.1 µM), an IC90 [14] of 5 µg/mL (≈ 25.5 µM) and an IC50 [15] of 1.5 µg/mL (≈ 7.65 µM). For the same compound, the IC90 [15] was 3.5 µg/mL (≈ 17.8 µM), the “Net zone of growth inhibition” value [1] was 6 mm and the “activity against drug resistant strains of C. albicans (in words)” value [16] was “able to inhibit the growth of drug resistant strains in a dose dependant manner”. The “growth inhibition of polyene drug resistant Saccharomyces cerevisiae (in words)” value [17] was “able to specifically inhibit the growth”, the IC50 [18] was 0.025 µg/mL (≈ 0.127 µM) and the IC90 [18] was 4 µg/mL (≈ 20.4 µM). The ergosterol-binding property [19] was “does not possess ergosterol-binding property”, the zone of inhibition at 40 µg/disc [10, 24] was 1 mm and the zone of inhibition at 80 µg/disc [10, 24] was 2 mm. It also gave a zone of inhibition at 320 µg/disc [10, 24] of 4 mm, a zone of inhibition at 40 µg/disc [2, 24] of 2 mm and a zone of inhibition at 80 µg/disc [2, 24] of 6 mm. The zone of inhibition at 320 µg/disc [2, 24] was 8 mm, the zone of inhibition at 40 µg/disc [11, 24] was 2 mm and the zone of inhibition at 80 µg/disc [11, 24] was 4 mm. For the same compound, the zone of inhibition at 320 µg/disc [11, 24] was 5 mm, the zone of inhibition at 40 µg/disc [12, 24] was 2 mm and the zone of inhibition at 80 µg/disc [12, 24] was 5 mm. It also gave a zone of inhibition at 320 µg/disc [12, 24] of 7 mm, a zone of inhibition at 80 µg/disc [13, 24] of 4 mm and a zone of inhibition at 320 µg/disc [13, 24] of 6 mm. The zone of inhibition at 80 µg/disc [3, 24] was 4 mm, the zone of inhibition at 320 µg/disc [3, 24] was 6 mm and the zone of inhibition at 40 µg/disc [4, 24] was 2 mm. The zone of inhibition at 80 µg/disc [4, 24] was 7 mm, the zone of inhibition at 320 µg/disc [4, 24] was 8 mm and the zone of inhibition at 80 µg/disc [5, 24] was 3 mm. For the same compound, the zone of inhibition at 320 µg/disc [5, 24] was 4 mm, the IC50 [20] was 0.04 µg/mL (≈ 0.204 µM) and the IC90 [20] was 4.5 µg/mL (≈ 22.9 µM). For the same compound, the zone of inhibition at 80 µg/disc [6] was 2 mm, the “growth inhibition of the wild type strain (in words)” value ([7]; wild type Candida albicans) was “inactive” and the IC50 [21] was 1 µg/mL (≈ 5.1 µM). For the same compound, the IC90 [22] was 5.5 µg/mL (≈ 28 µM), the “growth inhibition of yeast strains such as Saccharomyces cerevisiae (in words)” value [23] was “inhibit the growth” and the “Net zone of growth inhibition” value [9] was 6 mm.

With `C[C@@H]1[C@H](O)[C@@H](C)/C=C/C=C/CC/C=C/C=C/C=C/C=C/C(O[C@H]2O[C@H](C)[C@@H](O)[C@H](N)[C@@H]2O)CC2O[C@](O)(CC(O)C(O)CCC(O)CC(O)CC(O)CC(=O)O[C@H]1C)CC(O)C2C(=O)O` (some centres unmarked) [Nystatin] the “Net zone of growth inhibition” value [1] was 13 mm, the “Net zone of growth inhibition” value ([10]; Amph A8R, 80 μg/disc) was 3 mm and the “Net zone of growth inhibition” value ([2]; NYS 26R, 80 μg/disc) was 9 mm. The “Net zone of growth inhibition” value ([11]; Amph C6R, 80 μg/disc) was 4 mm, the “Net zone of growth inhibition” value ([12]; Amph C7R, 80 μg/disc) was 2 mm and the “Net zone of growth inhibition” value ([13]; Amph D1R, 80 μg/disc) was 4 mm. The “Net zone of growth inhibition” value ([3]; Clo 28R, 80 μg/disc) was 21 mm, the “Net zone of growth inhibition” value ([4]; NYS 4R, 80 μg/disc) was 8 mm and the “Net zone of growth inhibition” value ([5]; Clo 31R, 80 μg/disc) was 17 mm. The “Net zone of growth inhibition” value [6] was 23 mm, the “Net zone of growth inhibition” value [7, 25] was 22 mm and the “Net zone of growth inhibition” value ([8]; Amph 100R, 80 μg/disc) was 13 mm. For the same compound, the “Net zone of growth inhibition” value [9] was 16 mm.
